Data as given in patent US20260216057A1, “PHARMACEUTICAL COMPOSITIONS FOR HERPES VIRUS” (priority 2022, published 2026).

How the values were obtained:
[1] = Example 7: Compound 1 aqueous suspension SC PK study in monkey; assay type: in vivo, male cynomolgus monkeys; details: aqueous suspension (Form A), 10 mg/kg
Description: The LC-MS methodology and conditions used to analyse the helicase-primase inhibitor Compound 1 in plasma samples from the sub-cutaneous injection PK studies (Examples 7 and 10-12) are described in Table 3 and Table 4. An aqueous suspension of crystalline Compound 1 (Form A) was prepared in a 0.9% NaCl+0.5% polysorbate 80 vehicle at a concentration of 3.0 mg/mL as described in Example 3. The suspension was then dosed to male cyno monkeys at 10 mg/kg according to the Example 3 animal dosing method.

[2] = Example 13: Compound 1 IV PK study in monkey; assay type: in vivo, male cynomolgus monkeys; details: male, cynomolgus, plasma, 0.25 mg/kg, read-out: Monkey t1/2 (converted)
Description: The LC-MS methodology and conditions used to analyse Compound 1 in plasma samples from the intra-venous injection PK studies (Example 13) are described in Tables 5 to 7. A 0.25 mg/mL solution of Compound 1 in 10% DMSO, 10% Solutol HS15 and 80% Saline was prepared as follows: • 1) A stock solution of Compound 1 in DMSO was prepared. • 2) An equal volume of the Compound 1 stock solution and Solutol HS15 were combined and mixed. • 3) The above solution was diluted with normal saline to reach the target concentration. The final formulation was a clear solution. Male non-naïve Cyno Monkeys with were used for the monkey PK study. The animals had free access to food and water. The prepared solution was administered via intravenous injection to each animal group (n=3) to achieve a 0.25 mg/kg dose. At each time point, approximately 0.5 mL whole blood was collected into K2EDTA tubes. Blood samples were put on to ice and centrifuged at 2000 g for 5 min to obtain plasma sample within 15 minutes. Plasma samples were stored at approximately −70° C. until analyzed by LC-MS.

[3] = Example 15: Compound 1 solution SC PK study in rat; assay type: in vivo, male Sprague Dawley rats
Description: The LC-MS methodology and conditions used to analyse the helicase-primase inhibitor Compound 1 in rat plasma samples from the sub-cutaneous injection PK study described in Example 15 are provided in Table 8.
A solution of Compound 1 in 90% NMP and 10% Solutol HS15 at a concentration of 50 mg/mL was prepared as follows: • 1) An appropriate amount of crystalline Compound 1 (Form C) was weighed and added to NMP. • 2) After Compound 1 had dissolved, Solutol HS15 was added to the solution and mixed […]. • 3) The final dosing formulation was a clear solution.
Male Sprague Dawley (SD) rats with ~230-250 g body weight (aged 6-8 weeks) were used for the pharmacokinetic study. The animals had free access to food and water. […]
At each time point, approximately 150 μL whole blood was collected in a K2EDTA tube via the jugular vein. Blood samples were put on ice and centrifuged at 2000 g for 5 min to obtain a plasma sample within 15 minutes. Plasma samples were stored at approximately −70° C. until analyzed by LC-MS.

[4] = Allometric scaling of multi-species PK data to human
[5] = system: recurrent genital HSV-2; details: 28 days daily oral dosing; pritelivir 100 mg (after 400 mg loading dose), valacyclovir 500 mg; cited from earlier work
[6] = Example 4: pritelivir aqueous suspension SC PK study in dog; assay type: in vivo, male non-naïve Beagle dogs; details: aqueous suspension (dihydrate), 10 mg/kg, following an initial drug burst
Description: The LC-MS methodology and conditions used to analyse pritelivir in plasma samples from the PK studies described in Examples 1 to 5 are provided in Table 1.
An aqueous suspension of crystalline pritelivir free base (dihydrate) in a 0.9% NaCl+0.5% poloxamer 188 vehicle at a concentration of 5.0 mg/mL was prepared as follows: • 1) Vehicle (0.9% w/w NaCl and 0.5% w/w poloxamer 188) was prepared by dissolving NaCl and poloxamer 188 in water. • 2) Appropriate amount of crystalline pritelivir free base (dihydrate) was weighed and added to the vehicle. • 3) Mixture was stirred for 15 minutes, then vortexed for 1 minute and then sonicated for 10 minutes. • 4) The final dosing formulation was a homogenous white cloudy suspension.
Male non-naïve beagles were used for the dog PK study. The animals had free access to food and water. The prepared suspension was administered via subcutaneous injection to each animal group (n=3) with a dosing volume of 2 mL/kg to achieve a 10 mg/kg dose.
At each time point, approximately 0.5 mL of whole blood was collected into K2EDTA tubes. Blood samples were put on ice and centrifuged at 2000 g for 5 min to obtain plasma samples within 15 minutes. Plasma samples were stored at approximately −70° C. until analyzed by LC-MS.

[7] = Wald et al. (2014); cited from earlier work
[8] = solution in 90% NMP/10% Solutol HS15

| Compound | prolonged exposure out to (length of the study) [1] | half-life [2] [h] | adverse reactions at the injection sites [3, 8] | variability in plasma concentrations [3, 8] | prolonged exposure for (length of the study) ([3]; solution in 90% NMP/10% Solutol HS15 (50 mg/mL), dose of 50 mg/kg as printed, following an initial drug burst) [h] | predicted human clearance [4] [L/h] | HSV shedding, % of genital swabs analysed [5] [%] | plasma exposure after SC administration [6] | human biological terminal half-life [7] |
| --- | --- | --- | --- | --- | --- | --- | --- | --- | --- |
| Cc1nc(N2CCCN(c3ccc(-c4cc(F)ccc4F)cc3)C2=O)sc1S(N)(=O)=O [Compound 1, 2-(3-(2′,5′-difluoro-[1,1′-biphenyl]-4-yl)-2-oxotetrahydropyrimidin-1(2H)-yl)-4-methylthiazole-5-sulfonamide] | at least 1392 hours | 49.6 | no adverse reactions were observed | low | 960 | 0.06 | – | – | – |
| Cc1nc(N(C)C(=O)Cc2ccc(-c3ccccn3)cc2)sc1S(N)(=O)=O [pritelivir, N-methyl-N-(4-methyl-5-sulfamoyl-1,3-thiazol-2-yl)-2-[4-(pyridin-2-yl)phenyl]acetamide] | – | – | – | – | – | – | 2.4 | prolonged exposure was achieved | up to 80 hours |
